From patent US12479847B2 (DANA-FARBER CANCER INSTITUTE, INC., priority 2019, dated 2025)

How the values were obtained:
Test in all cases: KINOMEscan (ScanMAX) kinase profiling
Type in all cases: binding
[1] = biological target: T1, panel of 468 kinases (Homo sapiens, UniProt O00141); conditions: SGK; 1 μM; read-out: % control
T1 construct: purchased KINOMEscan (ScanMAX) service
T1 sequence (O00141 1-431): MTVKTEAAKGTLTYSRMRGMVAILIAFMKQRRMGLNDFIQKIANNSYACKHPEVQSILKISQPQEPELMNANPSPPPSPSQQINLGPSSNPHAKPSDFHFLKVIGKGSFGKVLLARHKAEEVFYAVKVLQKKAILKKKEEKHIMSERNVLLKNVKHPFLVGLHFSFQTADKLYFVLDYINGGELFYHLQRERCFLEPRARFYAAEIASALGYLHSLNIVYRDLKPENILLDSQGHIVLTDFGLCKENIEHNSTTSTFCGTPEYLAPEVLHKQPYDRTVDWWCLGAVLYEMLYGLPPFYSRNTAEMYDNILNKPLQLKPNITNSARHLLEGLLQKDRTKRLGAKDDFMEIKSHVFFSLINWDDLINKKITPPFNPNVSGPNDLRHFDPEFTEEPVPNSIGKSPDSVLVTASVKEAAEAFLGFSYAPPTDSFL

[2] = biological target: T2, panel of 468 kinases (Homo sapiens, UniProt O76039); conditions: CDKL5; 1 μM; read-out: % control
T2 construct: purchased KINOMEscan (ScanMAX) service
T2 sequence (O76039 1-960): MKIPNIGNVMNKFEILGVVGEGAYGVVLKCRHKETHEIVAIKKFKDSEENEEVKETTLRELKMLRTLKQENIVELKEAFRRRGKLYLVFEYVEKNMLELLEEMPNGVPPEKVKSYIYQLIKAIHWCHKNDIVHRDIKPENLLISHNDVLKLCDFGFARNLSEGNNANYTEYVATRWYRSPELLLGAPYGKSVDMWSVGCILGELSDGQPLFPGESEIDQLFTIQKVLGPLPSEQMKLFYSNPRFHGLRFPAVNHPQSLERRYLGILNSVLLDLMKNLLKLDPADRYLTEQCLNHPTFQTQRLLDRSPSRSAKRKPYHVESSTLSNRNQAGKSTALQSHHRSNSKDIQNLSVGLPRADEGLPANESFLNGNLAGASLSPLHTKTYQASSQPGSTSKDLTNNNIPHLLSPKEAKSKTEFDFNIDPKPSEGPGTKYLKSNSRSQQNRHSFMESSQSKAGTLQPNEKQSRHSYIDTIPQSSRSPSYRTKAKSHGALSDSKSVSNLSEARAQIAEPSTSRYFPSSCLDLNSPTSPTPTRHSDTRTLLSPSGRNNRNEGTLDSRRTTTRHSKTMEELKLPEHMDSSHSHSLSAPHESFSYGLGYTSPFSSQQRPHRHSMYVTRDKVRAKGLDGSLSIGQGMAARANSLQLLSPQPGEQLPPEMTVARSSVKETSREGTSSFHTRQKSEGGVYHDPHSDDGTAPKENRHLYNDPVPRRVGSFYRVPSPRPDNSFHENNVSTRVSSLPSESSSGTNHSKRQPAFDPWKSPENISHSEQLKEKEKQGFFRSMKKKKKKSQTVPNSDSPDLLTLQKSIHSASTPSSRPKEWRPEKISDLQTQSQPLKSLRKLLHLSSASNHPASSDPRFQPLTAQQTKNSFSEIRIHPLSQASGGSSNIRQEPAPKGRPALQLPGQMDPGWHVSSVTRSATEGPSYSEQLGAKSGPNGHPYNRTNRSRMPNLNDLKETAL

[3] = biological target: T3, panel of 468 kinases (Homo sapiens, UniProt P24723); conditions: PRKCH; 1 μM; read-out: % control
T3 construct: purchased KINOMEscan (ScanMAX) service

[4] = biological target: T4, panel of 468 kinases (Homo sapiens, UniProt P29323); conditions: EPHB2; 1 μM; read-out: % control
T4 construct: purchased KINOMEscan (ScanMAX) service
T4 sequence (P29323 19-1055): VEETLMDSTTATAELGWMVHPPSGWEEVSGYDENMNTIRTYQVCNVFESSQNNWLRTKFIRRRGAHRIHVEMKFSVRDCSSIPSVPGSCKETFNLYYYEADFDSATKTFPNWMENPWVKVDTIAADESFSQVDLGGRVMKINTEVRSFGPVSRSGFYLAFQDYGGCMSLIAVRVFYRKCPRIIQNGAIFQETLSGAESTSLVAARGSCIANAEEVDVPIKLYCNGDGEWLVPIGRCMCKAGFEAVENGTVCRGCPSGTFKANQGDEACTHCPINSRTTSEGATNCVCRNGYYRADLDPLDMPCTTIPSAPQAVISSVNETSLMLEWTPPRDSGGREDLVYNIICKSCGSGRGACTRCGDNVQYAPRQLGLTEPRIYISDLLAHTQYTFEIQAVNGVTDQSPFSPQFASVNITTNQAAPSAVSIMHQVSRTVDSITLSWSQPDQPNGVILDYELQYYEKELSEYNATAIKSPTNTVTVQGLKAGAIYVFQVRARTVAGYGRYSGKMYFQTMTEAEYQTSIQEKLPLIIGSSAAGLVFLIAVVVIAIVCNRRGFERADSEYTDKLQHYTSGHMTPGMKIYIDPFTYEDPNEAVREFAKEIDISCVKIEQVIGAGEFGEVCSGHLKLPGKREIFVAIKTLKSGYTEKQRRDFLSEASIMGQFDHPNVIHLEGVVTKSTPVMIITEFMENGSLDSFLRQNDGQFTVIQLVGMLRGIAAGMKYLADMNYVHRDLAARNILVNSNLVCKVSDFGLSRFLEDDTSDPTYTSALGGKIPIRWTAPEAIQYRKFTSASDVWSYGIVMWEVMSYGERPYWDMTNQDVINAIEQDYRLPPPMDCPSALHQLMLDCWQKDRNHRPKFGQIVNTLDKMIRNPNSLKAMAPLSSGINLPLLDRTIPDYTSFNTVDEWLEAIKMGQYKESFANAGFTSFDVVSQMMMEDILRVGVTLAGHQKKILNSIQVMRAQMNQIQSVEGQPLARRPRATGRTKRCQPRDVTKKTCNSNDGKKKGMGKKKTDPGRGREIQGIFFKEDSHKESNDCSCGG

[5] = biological target: T5, panel of 468 kinases (Homo sapiens, UniProt P57059); conditions: SIK; 1 μM; read-out: % control
T5 construct: purchased KINOMEscan (ScanMAX) service

[6] = biological target: T6, panel of 468 kinases (Homo sapiens, UniProt Q99755); conditions: PIP5K1A; 1 μM; read-out: % control
T6 construct: purchased KINOMEscan (ScanMAX) service
T6 sequence (Q99755 whole entry): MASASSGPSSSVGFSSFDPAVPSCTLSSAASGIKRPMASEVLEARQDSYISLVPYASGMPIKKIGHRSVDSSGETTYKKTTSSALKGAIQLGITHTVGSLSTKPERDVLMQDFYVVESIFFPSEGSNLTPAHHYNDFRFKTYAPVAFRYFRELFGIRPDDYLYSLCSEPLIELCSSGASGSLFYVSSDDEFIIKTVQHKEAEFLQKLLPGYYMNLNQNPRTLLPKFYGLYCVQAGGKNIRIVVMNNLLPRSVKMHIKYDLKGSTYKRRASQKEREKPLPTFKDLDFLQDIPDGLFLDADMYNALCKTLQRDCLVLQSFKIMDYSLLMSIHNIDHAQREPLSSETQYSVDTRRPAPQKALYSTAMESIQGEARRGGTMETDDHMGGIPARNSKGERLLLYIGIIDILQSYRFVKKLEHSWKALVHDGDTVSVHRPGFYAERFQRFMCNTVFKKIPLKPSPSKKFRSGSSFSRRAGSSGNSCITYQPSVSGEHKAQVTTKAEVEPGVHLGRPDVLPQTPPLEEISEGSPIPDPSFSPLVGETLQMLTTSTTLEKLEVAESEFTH

T3 sequence (P24723 whole entry): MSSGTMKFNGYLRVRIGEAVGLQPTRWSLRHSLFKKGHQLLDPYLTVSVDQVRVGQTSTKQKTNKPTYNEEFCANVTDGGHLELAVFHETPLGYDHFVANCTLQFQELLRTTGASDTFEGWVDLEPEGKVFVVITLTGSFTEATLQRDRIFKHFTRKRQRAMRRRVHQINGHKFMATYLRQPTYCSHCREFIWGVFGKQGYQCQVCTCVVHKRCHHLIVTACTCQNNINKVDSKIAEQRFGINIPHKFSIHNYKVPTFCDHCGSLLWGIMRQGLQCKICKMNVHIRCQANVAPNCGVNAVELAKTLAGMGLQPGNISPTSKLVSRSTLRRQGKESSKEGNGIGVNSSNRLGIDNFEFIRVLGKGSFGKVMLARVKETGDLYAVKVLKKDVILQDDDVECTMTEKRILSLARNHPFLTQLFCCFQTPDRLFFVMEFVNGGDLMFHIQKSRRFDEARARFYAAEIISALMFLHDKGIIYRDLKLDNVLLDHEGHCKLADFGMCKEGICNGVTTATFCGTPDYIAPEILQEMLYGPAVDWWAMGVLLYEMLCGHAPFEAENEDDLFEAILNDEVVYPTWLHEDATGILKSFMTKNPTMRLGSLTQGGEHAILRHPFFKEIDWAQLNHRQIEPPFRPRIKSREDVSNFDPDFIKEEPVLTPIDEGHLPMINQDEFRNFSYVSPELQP
T5 sequence (P57059 whole entry): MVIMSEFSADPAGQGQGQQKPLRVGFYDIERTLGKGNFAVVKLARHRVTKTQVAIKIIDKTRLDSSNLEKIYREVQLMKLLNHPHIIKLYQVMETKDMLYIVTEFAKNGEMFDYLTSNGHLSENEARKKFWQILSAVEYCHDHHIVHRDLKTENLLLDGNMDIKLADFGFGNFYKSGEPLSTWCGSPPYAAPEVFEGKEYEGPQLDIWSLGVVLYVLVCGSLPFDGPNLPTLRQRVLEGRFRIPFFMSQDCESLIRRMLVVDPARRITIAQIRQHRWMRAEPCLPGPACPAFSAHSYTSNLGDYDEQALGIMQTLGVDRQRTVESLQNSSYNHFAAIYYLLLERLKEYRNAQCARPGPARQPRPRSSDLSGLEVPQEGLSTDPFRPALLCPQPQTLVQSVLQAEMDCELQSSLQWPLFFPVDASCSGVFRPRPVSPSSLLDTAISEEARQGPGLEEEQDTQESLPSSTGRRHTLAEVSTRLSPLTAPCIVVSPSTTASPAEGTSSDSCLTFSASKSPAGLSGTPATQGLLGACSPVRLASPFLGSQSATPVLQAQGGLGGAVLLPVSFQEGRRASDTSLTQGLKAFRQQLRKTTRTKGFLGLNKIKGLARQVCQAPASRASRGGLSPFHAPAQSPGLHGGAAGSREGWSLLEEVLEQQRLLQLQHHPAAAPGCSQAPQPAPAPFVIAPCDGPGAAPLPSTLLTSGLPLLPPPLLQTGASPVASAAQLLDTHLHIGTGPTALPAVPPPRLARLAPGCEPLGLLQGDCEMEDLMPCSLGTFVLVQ

| SMILES | remaining binding at 1 µM [1] [%] | remaining binding at 1 µM [2] [%] | remaining binding at 1 µM [3] [%] | remaining binding at 1 µM [4] [%] | remaining binding at 1 µM [5] [%] | remaining binding at 1 µM [6] [%] |
| --- | --- | --- | --- | --- | --- | --- |
| CNc1nc(Nc2ccc(S(=O)(=O)N3CCC(N4CCOCC4)CC3)cc2OC)nc2[nH]cc(Cl)c12 [Compound 12, 5-chloro-N2-(2-methoxy-4-((4-morpholinopiperidin-1-yl)sulfonyl)phenyl)-N4-methyl-7H-pyrrolo[2,3-d]pyrimidine-2,4-diamine] | 89 | 83 | 97 | 100 | 100 | 100 |
| CNc1nc(Nc2ccc(C(=O)N3CCC(N4CCOCC4)CC3)c3c2OCO3)nc2[nH]cc(Cl)c12 [Compound 75, (7-((5-chloro-4-(methylamino)-7H-pyrrolo[2,3-d]pyrimidin-2-yl)amino)benzo[d][1,3]dioxol-4-yl)(4-morpholinopiperidin-1-yl)methanone] | 7.2 | 83 | 91 | 100 | 100 | 34 |
| CNc1nc(Nc2ccc(P3(=O)CCN(C4CCOCC4)CC3)cc2OC)nc2[nH]cc(Cl)c12 [Compound 77, 4-(4-((5-chloro-4-(methylamino)-7H-pyrrolo[2,3-d]pyrimidin-2-yl)amino)-3-methoxyphenyl)-1-(tetrahydro-2H-pyran-4-yl)-1,4-azaphosphinane 4-oxide] | 68 | 91 | 100 | 100 | 100 | 100 |
